Values quoted from earlier work in US20040106141A1, “Methods and materials for examining pathways associated with glioblastoma progression” (The Regents of the University of California, priority 2002, published 2004).

Tested on: SKMG-3 cells
Conditions: unstimulated SKMG-3 cells

CNc1cc2c(Nc3cccc(Br)c3)ncnc2cn1 [PD158780]
constitutive phosphorylation of Erk: reduces | constitutive phosphorylation of the receptor (EGFR) (GBM cell line with EGFR gene amplification): reduces
